Laboratory results reported in US11149056B2, “C7 substituted oxysterols and methods of use thereof” (Sage Therapeutics, Inc., priority 2016, dated 2021).

Columns and labels:
[1] = target: glutamate-activated channels of the GRIN1/2A subtype (Homo sapiens (Human), UniProt Q05586+Q12879); assay: Automated patch-clamp (QPatch HTX), NMDA receptor GRIN1/2A in HEK 293 cells; assay type: cell-based; settings: HEK 293 cells stably transfected with GRIN1/2A; 300 μM NMDA + 8 μM glycine; holding potential −80 mV; read-out: AVG_ EC50 2A
Description: (§1) Automated Patch-Clamp System (OPatch HTX)
In this study, HEK 293 cells stably transfected with glutamate-activated channels of the GRIN1/2A subtype will be used together with submaximal NMDA concentrations (300 μM NMDA, co-application with 8 μM Glycine) to investigate the negative allosteric modulation of the test compounds.
(§2) In general, cells will be passaged at a confluence of about 80% to […]. For electrophysiological measurements cells will be harvested at a confluence of about 80% to 90% from sterile culture flasks containing culture complete medium. Cells will be transferred as suspension in PBS to the QPatch 16X or QPatch HTX system to; the centrifuge/washer directly. Standard Laboratory Conditions; Cells will be incubated at 37° C. in a humidified atmosphere with 5% CO2 (rel. humidity about 95%). Culture media: The cells will be continuously maintained in and passaged in sterile culture flasks containing a 1:1 mixture of Dulbecco's modified eagle medium and nutrient mixture F-12 (D-MEM/F-12 1×, liquid, with L-Glutamine) supplemented with 10% fetal bovine serum, 1% Penicillin/Streptomycin solution, and 50 μM AP-5 blocker. Antibiotics: The complete medium as indicated above is supplemented with 100 μg/mL hygromycin, 15 μg/mL blasticidin and 1 μg/mL puromycin. Induction of Expression-. 2.5 μg/mL tetracycline is added 24 h before start of experiments. Dose Formulation Dose levels are in terms of test compounds, as supplied. Vehicle will be added to achieve a stock concentration of 10 mM (storage at −10° C. to −30° C.). A further stock solutions of 1.0 mM will be prepared in DMSO. Details of stock solution usage (thawing, dose formulations) will be documented in the raw data. The time period of stock solution usage will be detailed in the report. Test Compound Concentrations Dose levels, are in terms of test compounds, as supplied. Vehicle will be added to achieve a stock concentration of 10 mM (storage at −10° C. to −30° C.). A further stock solutions of 1.0 mM will be prepared in DMSO. Details of stock solution usage (thawing, dose formulations) will be documented in the raw data. The time period of stock solution usage will be detailed in the report. One test concentration of 1.0 μM will be tested. All test solutions will be prepared by diluting the stock solutions with either Mg-free bath solution only or Mg-free bath solution containing NMDA (300 μM) and glycine (8.0 μM) shortly prior to the electrophysiological experiments and kept at room temperature (19° C. to 30° C.) when in use. 0.1% DMSO will be used as vehicle. Frequency of preparation. For each test concentration, fresh solutions of test compounds will be prepared every day. Stability of dose formulation: All preparation times will be documented in the raw data. Any observations regarding instability of test compounds will be mentioned in the raw data. Storage of dose formulation: On the day of experimentation dose formulations will be maintained at room temperature (19° C. to 30° C.) when in use, Bath Solutions For preparing the experiments and for formation of the giga-ohm-seal, the following standard bath solution will be used: Sodium Chloride: 137 mM; Potassium Chloride: 4 mM; Calcium Chloride: 1.8 mM; Magnesium Chloride: 1 mM; HEPES: 10 mM; D-Glucose: 10 mM; Cremophor: 0.02%; pH (NaOH): 7.4
The 1× bath solution will be prepared by diluting 10× bath solution without Glucose and 100× Glucose solution with water at least every 7 days. Both stock solutions have been prepared prior to the experimental start of the present study and stored at 1° C. to 9° C. (10× bath solution) or −10° C. to −30° (100× Glucose solution). The batch number(s) of the bath solution(s) used in the experiments will be documented in the raw data. When muse, the 1× bath solution will be kept at room temperature (19° C. to 30° C.). When not in use, the 1× bath solution will be stored at 1° C. to 9° C.
After the giga-seal was formed the following Mg-free bath solution will be used: […]

[2] = target: NMDA receptor 2B (Homo sapiens (Human), UniProt Q05586+Q13224); assay: Automated patch-clamp (QPatch HTX), NMDA receptor 2B subtype; assay type: cell-based; settings: for Emax: read-out: AVG_ EMAX 2B %
Description: as §1, §2
The 1× intracellular solution will be thawed every day out of a frozen 1× intracellular solution, which has been prepared prior to the experimental start of the present study, aliquoted and stored at −10° C. to −30° C. When in use, the 1× intracellular solution will kept at room temperature (19° C. to 30° C.). Remaining 1× intracellular solution will be stored in the fridge (1° C. to 9° C.). The 1× intracellular solution will include the components outlined below: Potassium Chloride: 130 mM; Magnesium Chloride: 1 mM; Mg-ATP: 5 mM; HEPES: 10 mM; EGTA: 5 mM; pH (KOH): 7.2 Cell Treatment For this study, cells will continuously be perfused with NMDA/Glycine, Test Compound or Test Compound/NMDA/Glycin. In every case, at least 30-second prewash steps with a test compound will be performed in between applications. For details see Table A below. Each experiment type will be analyzed in at least n=3 isolated cells. […]

Chain of NMDA receptor 2B (Q13224 27-1484, other chains not shown): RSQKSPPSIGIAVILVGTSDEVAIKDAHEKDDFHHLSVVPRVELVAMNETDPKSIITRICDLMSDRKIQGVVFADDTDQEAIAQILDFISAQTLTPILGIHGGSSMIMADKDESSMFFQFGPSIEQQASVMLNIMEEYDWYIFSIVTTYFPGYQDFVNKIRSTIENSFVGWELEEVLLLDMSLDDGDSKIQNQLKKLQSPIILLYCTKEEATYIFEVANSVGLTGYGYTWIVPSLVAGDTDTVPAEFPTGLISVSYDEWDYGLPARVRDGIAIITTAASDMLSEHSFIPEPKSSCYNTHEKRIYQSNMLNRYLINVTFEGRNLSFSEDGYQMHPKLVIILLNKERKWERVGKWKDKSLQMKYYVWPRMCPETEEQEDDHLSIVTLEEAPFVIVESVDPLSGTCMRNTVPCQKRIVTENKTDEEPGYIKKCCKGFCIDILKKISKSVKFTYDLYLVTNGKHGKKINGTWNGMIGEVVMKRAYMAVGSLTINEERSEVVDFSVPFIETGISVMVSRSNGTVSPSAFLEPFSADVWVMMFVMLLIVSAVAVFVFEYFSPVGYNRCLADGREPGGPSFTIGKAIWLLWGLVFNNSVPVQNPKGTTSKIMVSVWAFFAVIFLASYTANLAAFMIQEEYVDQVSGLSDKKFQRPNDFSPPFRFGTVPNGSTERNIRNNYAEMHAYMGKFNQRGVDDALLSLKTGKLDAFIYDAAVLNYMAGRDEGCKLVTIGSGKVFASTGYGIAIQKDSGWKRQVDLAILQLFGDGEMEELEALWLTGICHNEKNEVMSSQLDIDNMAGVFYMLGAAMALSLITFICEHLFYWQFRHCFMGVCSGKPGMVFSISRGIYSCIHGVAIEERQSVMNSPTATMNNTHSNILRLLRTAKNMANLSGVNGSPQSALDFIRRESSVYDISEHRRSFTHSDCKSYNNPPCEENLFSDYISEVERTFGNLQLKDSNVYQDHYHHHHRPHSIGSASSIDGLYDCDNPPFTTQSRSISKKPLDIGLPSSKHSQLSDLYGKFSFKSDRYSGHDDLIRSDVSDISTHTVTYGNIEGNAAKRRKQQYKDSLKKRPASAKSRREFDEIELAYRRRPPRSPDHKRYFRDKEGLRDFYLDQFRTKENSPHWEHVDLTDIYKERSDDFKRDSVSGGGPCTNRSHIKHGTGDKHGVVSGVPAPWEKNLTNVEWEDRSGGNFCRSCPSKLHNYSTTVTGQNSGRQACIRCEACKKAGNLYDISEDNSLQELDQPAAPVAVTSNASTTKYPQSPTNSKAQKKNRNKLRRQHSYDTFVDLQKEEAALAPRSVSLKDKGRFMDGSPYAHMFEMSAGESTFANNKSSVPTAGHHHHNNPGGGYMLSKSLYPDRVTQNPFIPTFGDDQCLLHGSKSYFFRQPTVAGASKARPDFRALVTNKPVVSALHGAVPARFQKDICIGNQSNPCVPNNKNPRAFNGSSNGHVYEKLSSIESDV
Chain of glutamate-activated channels of the GRIN1/2A subtype (Q12879 23-1464, other chains not shown): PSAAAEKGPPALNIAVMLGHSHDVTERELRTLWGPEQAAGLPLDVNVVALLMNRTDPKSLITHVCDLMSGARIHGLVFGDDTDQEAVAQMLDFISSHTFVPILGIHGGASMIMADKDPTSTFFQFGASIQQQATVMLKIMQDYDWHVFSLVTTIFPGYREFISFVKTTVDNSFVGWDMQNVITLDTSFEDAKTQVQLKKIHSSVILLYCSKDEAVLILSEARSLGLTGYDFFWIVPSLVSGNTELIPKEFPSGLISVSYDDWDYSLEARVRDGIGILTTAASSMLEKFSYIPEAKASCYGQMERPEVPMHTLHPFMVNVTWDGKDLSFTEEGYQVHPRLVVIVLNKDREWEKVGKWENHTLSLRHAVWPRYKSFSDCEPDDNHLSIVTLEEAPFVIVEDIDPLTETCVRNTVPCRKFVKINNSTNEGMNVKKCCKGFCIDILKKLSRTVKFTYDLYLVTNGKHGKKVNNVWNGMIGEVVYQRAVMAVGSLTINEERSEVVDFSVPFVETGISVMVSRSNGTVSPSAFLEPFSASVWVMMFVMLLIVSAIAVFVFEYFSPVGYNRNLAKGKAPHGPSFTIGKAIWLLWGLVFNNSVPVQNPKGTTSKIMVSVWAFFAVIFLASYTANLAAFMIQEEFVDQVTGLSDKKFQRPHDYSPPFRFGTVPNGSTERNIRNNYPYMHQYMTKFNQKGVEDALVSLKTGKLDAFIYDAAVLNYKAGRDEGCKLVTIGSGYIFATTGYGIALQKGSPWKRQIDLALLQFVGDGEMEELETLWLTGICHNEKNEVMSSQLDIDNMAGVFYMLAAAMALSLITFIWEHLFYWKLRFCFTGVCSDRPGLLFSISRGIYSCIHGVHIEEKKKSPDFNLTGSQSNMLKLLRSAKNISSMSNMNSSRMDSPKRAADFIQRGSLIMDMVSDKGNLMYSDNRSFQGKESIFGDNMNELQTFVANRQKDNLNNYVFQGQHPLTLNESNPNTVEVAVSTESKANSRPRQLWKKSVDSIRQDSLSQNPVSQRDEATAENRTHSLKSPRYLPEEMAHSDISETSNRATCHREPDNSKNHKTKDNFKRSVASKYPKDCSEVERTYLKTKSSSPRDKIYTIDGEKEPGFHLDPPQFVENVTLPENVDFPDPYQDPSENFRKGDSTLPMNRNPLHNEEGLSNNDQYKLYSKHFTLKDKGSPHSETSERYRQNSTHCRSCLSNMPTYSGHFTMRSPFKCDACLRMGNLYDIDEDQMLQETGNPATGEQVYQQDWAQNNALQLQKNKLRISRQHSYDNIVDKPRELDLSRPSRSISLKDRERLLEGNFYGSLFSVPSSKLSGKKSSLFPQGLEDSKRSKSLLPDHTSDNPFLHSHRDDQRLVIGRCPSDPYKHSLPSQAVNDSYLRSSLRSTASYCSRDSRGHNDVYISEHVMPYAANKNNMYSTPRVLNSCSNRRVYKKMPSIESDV

| Compound | EC50 [1] [nM] | EC50 [2] [nM] | Emax [2] [%] |
| --- | --- | --- | --- |
| CC[C@]1(O)CC[C@@]2(C)C(=C[C@@H](C)[C@H]3[C@@H]4CC[C@H]([C@H](C)CCC(C)(C)O)[C@@]4(C)CC[C@@H]32)C1 [Compound U6408] | 230 | 132 | 447 |
| CC[C@]1(O)CC[C@@]2(C)C(=C[C@H](C)[C@H]3[C@@H]4CC[C@H]([C@H](C)CCC(C)(C)O)[C@@]4(C)CC[C@@H]32)C1 [Compound U6409] | > 10000 | > 10000 | 71 |
| CC[C@]1(O)CC[C@@]2(C)[C@@H](CC(=O)[C@@H]3[C@@H]2CC[C@]2(C)[C@@H]([C@H](C)CCC(C)(C)O)CC[C@@H]32)C1 [Compound U6410] | > 10000 | > 10000 | 44 |
| CC[C@]1(O)CC[C@@]2(C)C(=C[C@H](O)[C@H]3[C@@H]4CC[C@H]([C@H](C)CCC(C)(C)O)[C@@]4(C)CC[C@@H]32)C1 [Compound U6429] |  | 667 | 109 |
| CC[C@]1(O)CC[C@@]2(C)C(=C[C@](C)(O)[C@H]3[C@@H]4CC[C@H]([C@H](C)CCC(C)(C)O)[C@@]4(C)CC[C@@H]32)C1 [Compound U6437] | 1620 | 741 | 213 |
| CC[C@]1(O)CC[C@@]2(C)C(=C[C@@](C)(O)[C@H]3[C@@H]4CC[C@H]([C@H](C)CCC(C)(C)O)[C@@]4(C)CC[C@@H]32)C1 [Compound U6438] | > 10000 | > 10000 | 15 |
| CC[C@]1(O)CC[C@@]2(C)C(=C[C@@H](O)[C@H]3[C@@H]4CC[C@H]([C@H](C)CCC(C)(C)O)[C@@]4(C)CC[C@@H]32)C1 [Compound U6450] |  | 66 | 111 |
| CC[C@]1(O)CC[C@@]2(C)C(=CC(=O)[C@H]3C4CC[C@H]([C@H](C)CCC(C)(C)O)[C@@]4(C)CC[C@@H]32)C1 (some centres unmarked) [Compound U6461] | > 10000 | > 10000 | 53 |
| C[C@@H]1C=C2C[C@@](C)(O)CC[C@]2(C)[C@H]2CC[C@]3(C)[C@@H]([C@H](C)CC[C@](C)(O)C(F)(F)F)CC[C@H]3[C@H]12 [Compound U6472] |  | 22 | 231 |
| C[C@H](CC[C@](C)(O)C(F)(F)F)[C@H]1CC[C@H]2[C@@H]3[C@@H](C)C=C4C[C@@](C)(O)CC[C@]4(C)[C@H]3CC[C@]12C [Compound U6473] |  | > 10000 | 47 |
| C[C@@H]1C=C2C[C@@](C)(O)CC[C@]2(C)[C@H]2CC[C@]3(C)[C@@H]([C@H](C)CC4(O)CCC(C)(C)CC4)CC[C@H]3[C@H]12 [Compound U6477] | 747 | 698 | 86 |
| C[C@H](CC1(O)CCC(C)(C)CC1)[C@H]1CC[C@H]2[C@@H]3[C@@H](C)C=C4C[C@@](C)(O)CC[C@]4(C)[C@H]3CC[C@]12C [Compound U6478] | 191 | 160 | 127 |
| CC[C@]1(O)CC[C@@]2(C)[C@@H](C[C@H](O)[C@@H]3[C@@H]2CC[C@]2(C)[C@@H]([C@H](C)CCC(C)(C)O)CC[C@@H]32)C1 [Compound U6479] | > 10000 | 1420 | 92 |
